In one experiment the test system is HCT116.CD133- cells. As to the kind of experiment: Inhibition of HCT116.CD133- colonosphere formation. It is filed as cell-based, human. The conditions noted are these: IC30 values for 6 days. As for the experimental part: (§1) Supplementary Figure 28. Representative images of the HCT116 p53 +/+ colonospheres untreated or treated
(§2) with the investigated compounds at their respective IC 30 values for 72 h. Scale bars: 100 µm.
(§3) colonosphere formation similarly or more effectively than  Δ-[Fe 2L13]Cl4 and salinomycin, a
(§4) well-established CSC-potent agent.
(§5) 10.2 Separation of HCT116.CD133 + and HCT116.CDD133 - cells by magnetically
(§6) activated cell sorting (MACS)
(§7) Positive selection with a single marker of CD133/1 (AC133) was used to enrich for CSCs. The
(§8) cells were harvested by non-enzymatic Cell Stripper (Corning), prepared into single cell
(§9) suspension (30 µm strainer) and counted. Approx. 2×10^7 cells were obtained for cell sorting.
(§10) For a selection of CD133 single positive cells, the cells were stained with the APC-conjugated
(§11) incubated for 20 min at 4-8 °C. The cells were washed with buffer (PBS, 0.5% BSA, pH 7.2;
(§12) prepared by diluting MACS BSA Stock Solution (130-091-376) 1:20 with auto MACS Rinsing
(§13) Solution (130-091-222)) and incubated with Anti-APC Micro Bead (Miltenyi Biotec, 130-090- […]
(§14) three-times in Buffer and analyzed on BD FACSVerse flow cytometer (San Jose, CA, USA);
(§15) the data were analyzed using BD FACSSuite software.
(§16) Supplementary Figure 29. Representative histograms displaying the red fluorescence emitted by anti-CD133- […]
(§17) the medium. The number and size of spheres were determined using an inverted microscope.

For experiment [1], the system named is CSC enriched HCT116.CD133+ cells. The experiment in a line: Cytotoxicity in HCT116.CD133+ cells, SRB assay. The experiment is classed as cell-based. Conditions: Homo sapiens, 72 h, read-out: IC50 HCT116.CD133+. The source says: Supplementary Figure 30. Growth inhibitory effects in HCT116.CD133- and HCT116.CD133+ cancer cells.
Representative microscopy images of the HCT116.CD133- colonospheres in the absence (a) and presence of […]
salinomycin (b), Δ-[Fe 2L13]Cl4 (c), and Δ-[Fe 2L3a3]Cl4 (d), treated at their respective IC30 values for 6 days (scale […]
bar: 100 µm). Quantification of colonosphere formation from HCT116.CD133+ (e) and HCT116.CD133- (f,g) […]
under the same conditions. Data represent the mean value and SD from three independent experiments. p < 0.01, […]
10.5 Cytotoxicity in HCT116.CD133 + cells, SRB assay
Sorted HCT116.CD133+ cells were plated in 96w culture plates (TPP) (3000 cells per well) […]
and cultured for 3 days to allow cells to recover after sorting and to grow to the desired density.
Cells were then treated with different concentrations of the investigated compounds, […]
with Tris base (pH 10.5). The absorbance at 570 nm was measured using a SUNRISE Tecan […]
absorbance reader (Schoeller). The IC50 values were calculated from curves constructed by […]
plotting cell survival (%) versus drug concentration (μM). The reading values were converted […]
to the percentage of control (% cell survival). Cytotoxic effects were expressed as IC 50. […]
determined with SRB assay. a […]
aThe cells were treated for 72 h. The results are expressed as mean ± SD of three independent experiments. […]

Another experiment has as its system HCT116p53+/+. As to the kind of experiment: Cytotoxicity in HCT116 p53+/+ cells, SRB assay. It is filed as cell-based. Conditions: Homo sapiens, HCT-116, 72 h, read-out: IC50 HCT116p53+/+.
A further experiment has as its system HCT116.CD133+ cells. As to the kind of experiment: Inhibition of HCT116.CD133+ colonosphere formation. The experiment is classed as cell-based, human. Conditions: IC30 values for 6 days. As for the experimental part:
as §1, §2, §3, §4, §5, §6, §7, §8, §9, §10, §11, §12, §13, §14, §15, §16, §17

A further experiment has as its system HCT116 p53+/+ cells. The experiment in a line: Inhibition of HCT116 colonosphere formation. Conditions: IC30 for 72 h, then 6 days. The experiment is classed as cell-based, human. As for the experimental part: Cells were treated with drug (IC30 concentration) for 72 h, washed, harvested with StemPro Accutase, and plated in ultra-low attachment 96-well culture plates (300 cells per well). Cells were cultured in for 6 days without disturbing the plates or replenishing the medium and the number/size of spheres were determined using an inverted microscope.
10. Anti-cancer stem cell study
10.1 Inhibition of HCT116 colonsphere formation
HCT116 p53+/+ (adherent) cells were treated with  Δ-[Fe 2L13]Cl4,  Δ-[Fe 2L3a3]Cl4 and
salinomycin (at their IC30 values) for 72 h. Cells were then washed with PBS, harvested by
StemProAccutase (Gibco) and plated in ultralow-attachment 96w culture plates (Corning)
(300cells per well). Cells were cultured in DMEM/F12 supplemented with B27 (-vitA, Gibco,
ngmL-1 FGF2 (Sigma, F0291) for 6 days without disturbing the plates and without replenishing
as §17
Supplementary Table 3. Quantification of colonospheres formation in HCT116 p53+/+ cells untreated or treated […]
aThe results are expressed as mean ± SD of three independent experiments.
Supplementary Figure 27. Quantification of colonosphere formation in HCT116 p53+/+ colonospheres untreated
or treated with the investigated compounds at their respective IC30 values for 72 h. The results are expressed as […]

Another experiment relates to Na+/K+ ATPase. The experiment in a line: Rubidium based assay for detection of Na+/K+ ATPase activity. Set-up: species or system human. The conditions noted are these: A2780 and HCT116 p53+/+ cell lines, 10 μM for 6 h, then RbCl (5.4 mM) 3 h, ICP-MS. As for the experimental part: Cells were seeded in 6-well plates and incubated for 24 h at 37 °C in an atmosphere of 5% CO2. Cells were then incubated with drug for 6 h, and subsequently the medium was removed and cells were washed with PBS. Cells were then incubated with RbCl (5.4 mM) for 3 h, washed and counted. Rubidium content was determined by ICP-MS.
8.4 Real-time cell growth monitoring
Real-time Cell Analyzer (RTCA) (xCELLigence RTCA SP Instrument, ROCHE) was employed for growth monitoring of cells in the absence and the presence of tested compounds.
After the background of E-plates reading (100 µL medium), the cells were added (5x10^3 cells/well; 50 µL) and grown for 22-28 h. Tested compounds at varying concentrations were then added in 50 µL of media. The impedance was monitored for additional 80 h. An arbitrary unit CI (cell index) is a quantitative measure reflecting the status of the cells (number of attached cells and cell status such as morphology) in an electrode-containing well. Normalized CI at a given time point is given by dividing CI at the time point by CI at a reference time point.
8.5 Rubidium based assay for detection of Na +/K+ ATPase activity
The cells were seeded on 6-well plates (5× 10^5 cells/dish) and incubated overnight. The cells were treated with the investigated compounds for 6 h at 10 µM concentration. […] The cells were then harvested, washed trice with PBS, counted and pelleted. […]

The source of these data is PMC6839601, “Discovery of selective, antimetastatic and anti-cancer stem cell metallohelices via post-assembly modification” (Chemical Science, 2019).

Consider `CC[C@@H](C(=O)[C@@H](C)[C@@H](O)[C@H](C)[C@@H]1O[C@@H]([C@@H](CC)C(=O)O)CC[C@@H]1C)[C@H]1O[C@]2(C=C[C@@H](O)[C@]3(CC[C@@](C)([C@H]4CC[C@](O)(CC)[C@H](C)O4)O3)O2)[C@H](C)C[C@@H]1C` [Salinomycin, salinomycin], for which the “inhibition of colonosphere formation from HCT116.CD133- cells” value with HCT116.CD133- cells is reported as “do not significantly inhibit”. In addition, the results for the IC50 (in experiment [1]; in the experiment with HCT116p53+/+) were 1120 ± 230 nM and 1480 ± 210 nM, respectively. For the same molecule, the “inhibition of colonosphere formation from HCT116.CD133+ cells” value in the experiment with HCT116.CD133+ cells is recorded as “effectively inhibit”. This molecule showed a Diameter of colonospheres with HCT116 p53+/+ cells (control 96 ± 20) of 76 ± 17 µm. Besides, the Spheres/1000cells in the experiment with HCT116 p53+/+ cells (control 224 ± 14) is reported as 142 ± 14.
For the molecule `C[C@@H]1O[C@@H](O[C@H]2C[C@@H](O)[C@]3(CO)[C@H]4[C@H](O)C[C@]5(C)[C@@H](C6=CC(=O)OC6)CC[C@]5(O)[C@@H]4CC[C@]3(O)C2)[C@H](O)[C@H](O)[C@H]1O` [ouabain], the “inhibition of Rb+ uptake” value in the experiment with Na+/K+ ATPase is given as 39–57%.
